The test has as its target Alkaline phosphatase, placental type (Homo sapiens) (UniProt P05187). The experiment in a line: activation of human placental alkaline phosphatase – biochemical, luminescence, HTS (AID 696). As to conditions: purified PLAP enzyme, luminescent substrate read-out.

Alkaline phosphatase, placental type (Homo sapiens), sequence (P05187 whole entry, looked up): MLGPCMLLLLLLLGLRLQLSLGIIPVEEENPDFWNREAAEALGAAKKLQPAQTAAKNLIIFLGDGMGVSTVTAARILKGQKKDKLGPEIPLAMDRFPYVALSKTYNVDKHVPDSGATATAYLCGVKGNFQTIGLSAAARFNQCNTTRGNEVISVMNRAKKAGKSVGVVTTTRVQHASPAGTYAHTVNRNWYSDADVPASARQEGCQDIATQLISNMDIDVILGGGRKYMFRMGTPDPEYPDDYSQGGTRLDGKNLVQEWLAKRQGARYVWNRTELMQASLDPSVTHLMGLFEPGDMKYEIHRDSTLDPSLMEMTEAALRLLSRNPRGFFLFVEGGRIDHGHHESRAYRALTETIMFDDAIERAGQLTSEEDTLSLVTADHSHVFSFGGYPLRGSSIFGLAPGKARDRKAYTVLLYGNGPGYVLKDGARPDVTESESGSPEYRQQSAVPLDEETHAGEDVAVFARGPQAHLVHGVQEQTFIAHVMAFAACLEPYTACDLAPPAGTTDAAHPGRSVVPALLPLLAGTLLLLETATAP

Consider `O=C(Oc1ccc2c(=O)c(Oc3ccc4ccccc4c3)coc2c1)c1cncc(Br)c1`, for which the 50% effective concentration (EC50) (as a rule, the midpoint of the concentration-response curve) is 74 µM.

For `Cc1ccc(/C=N/NC(=O)c2c[nH]c3ccccc23)o1`, the EC50 was 59.2 µM.

Consider `CC1CC(C)CN(CC(C)(C)NS(=O)(=O)c2ccc(Cl)cc2)C1` (centres undefined), for which the 50% effective concentration (EC50) is 24.8 µM.

Take `COc1ccc(-c2nnc(-c3ccc(Br)o3)o2)cc1OC`: the EC50 was 25.9 µM.

Turning to `CCOc1ccc(CNC(=S)N/N=C\c2ccc([N+](=O)[O-])cc2)cc1`, the EC50 was 10.9 µM.

Turning to `O=C1Nc2ccc(Br)cc2/C1=N/N=C/C1=C(N2CCOCC2)C(=C\c2ccccc2)/CC1`, the EC50 is 38.4 µM.

Turning to `CCn1c(SCC(=O)c2ccc(O)c(O)c2)nnc1-c1ccccc1`, the EC50 was 79.4 µM.

As to `O=P(CCCCCCCCCP(=O)(c1ccccc1)c1ccccc1)(c1ccccc1)c1ccccc1`, the EC50 was 99.6 µM.

On to `c1ccc(Nc2cccc(Nc3ccccc3)n2)cc1`, for which the 50% effective concentration (EC50) was 37 µM.

With `COc1ccc(-c2cc(NCc3ccccn3)n3ncnc3n2)cc1`, the EC50 was 65.9 µM.

For `O=C(C[n+]1cc2ccccc2c2ccccc21)c1ccccc1`, the EC50 was 94.1 µM.

On to `COC(=O)c1cn[nH]c1NC(=S)Nc1ccccc1C`, for which the EC50 is 21.1 µM.

Turning to `CCC(=O)Nc1ccccc1C(=O)OCC(=O)c1ccccc1`, the EC50 is 39.2 µM.

Turning to `N#CC(c1ccc(F)cc1)c1ccc(C(=O)c2ccc(F)cc2)cc1` (centres undefined), the 50% effective concentration (EC50) was 23.1 µM.

`O=C(Cn1c(=O)oc2cc(S(=O)(=O)N3CCCC3)ccc21)NCc1ccc(F)cc1`: the half-maximal effective concentration (EC50) is 0.457 µM.

As to `N#CC(c1ccc(F)cc1)c1ccc(C(=O)c2ccccc2)cc1` (centres undefined), the EC50 was 7.89 µM.

With `c1ccc(CSCCc2ccncc2)cc1`, the EC50 was 66.9 µM.

On to `Clc1ccc(-c2cc(CSc3cccc(Cl)c3)on2)cc1`, for which the EC50 is 69.4 µM.

Take `O=[N+]([O-])c1ccc(Sc2nnnn2-c2ccccc2)c(Cl)c1`: the concentration for a half-maximal effect (EC50) was 26.3 µM.

In the case of `Cc1cc(Nc2ccc(Cl)cc2)n(-c2cccc(Cl)c2)n1`, the half-maximal effective concentration (EC50) was 51 µM.

With `Cc1ccc(C)c(NC(=S)NC(NC(=O)Cc2cccc3ccccc23)C(Cl)(Cl)Cl)c1` (centres undefined), the EC50 is 63.1 µM.

`Cc1ccc(C2CC(c3ccc(Cl)cc3)=NNC2=O)cc1` (centres undefined): the EC50 is 0.203 µM.

For `O=P(/C(=N/O)N1CCCCC1)(N1CCOCC1)N1CCOCC1`, the concentration giving a half-maximal response (EC50) is 54.5 µM.

In the case of `CC1Cc2ccccc2N1C(=O)CSc1nnc(Cc2ccccc2)n1CCc1ccccc1` (centres undefined), the 50% effective concentration (EC50) was 86.8 µM.

As for `COc1cccc(NC(=O)c2nnn(CCc3ccccc3)c2N)c1`, the EC50 is 82.8 µM.

For `Cc1nn(C)cc1/C=N\NC(=O)c1ccc2c(c1)c(C)c(C)n2Cc1ccccc1`, the EC50 is 72.1 µM.

As to `COc1cccc(NCc2cc3c(C(C)(C)C)nn(-c4ccccc4)c3[nH]c2=O)c1`, the half-maximal effective concentration (EC50) is 78 µM.

As to `CCOC(=O)c1c(C)[nH]c(C(=O)CSc2nnc(CC(C)c3ccccc3)o2)c1C` (centres undefined), the concentration for a half-maximal effect (EC50) was 78.5 µM.

As for `CCCCN1CCc2c1nc1ccc(Br)cc1c2N`, the EC50 was 77.2 µM.

Consider `CCCn1c(C(O)c2ccc3c(c2)OCO3)nc2ccccc21` (centres undefined), for which the EC50 was 17.7 µM.

For the compound `O=C(Nc1ccccc1)NC1(C(=O)N2CCN(C(=O)c3ccco3)CC2)CCCCC1`, the 50% effective concentration (EC50) is 35.6 µM.

As to `Cc1cccc(N2C(=O)NC(=O)/C(=C\c3cnn(-c4ccccc4)c3)C2=O)c1`, the concentration for a half-maximal effect (EC50) was 1.09 µM.

Turning to `CCCCOC(=O)C(C)Nc1n[nH]c(=S)[nH]c1=O` (centres undefined), the EC50 is 21.4 µM.

In the case of `CC(C)N=c1scc(-c2ccco2)n1/N=C/c1ccc(O)c(O)c1`, the EC50 is 48.2 µM.

For the compound `CC(C)n1c(-c2ccc(N(C)C)cc2)nc2ccccc21`, the EC50 is 8.52 µM.

For the compound `Cc1ccc(-n2c([O-])nc(-[n+]3ccccc3)c2C=O)cc1`, the half-maximal effective concentration (EC50) was 9.08 µM.

As for `O=C(NC1(C(F)(F)F)Oc2ccc(Cl)cc2O1)N1CCC2(CC1)OCCO2` (centres undefined), the 50% effective concentration (EC50) was 61.9 µM.

Regarding `O=C(Cn1c(=O)n(-c2ccccc2)c(=O)c2sccc21)N1CCCC1`, the EC50 is 2.65 µM.

For `CCCn1c(CNc2ccc(Br)cc2)nc2ccccc21`, the half-maximal effective concentration (EC50) is 48.5 µM.

Source of the values: PubChem BioAssay AID696 (Sanford-Burnham Center for Chemical Genomics, 2007).
